How the values were obtained:
Format in all cases: in vivo
Conditions in all cases: active ingredient amount 31 g/ha, 14th day after application
[1] = test system: redroot pigweed (Amaranthus retroflexus L.); test: Test Example 1: foliar treatment, growth inhibition rate on 14th day
Method in brief: (§1)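 Visual 0–100% inhibition scoring (100 = complete kill) at 14 days after foliar treatment of soil-grown seedlings at species-specific leaf stages, with the compound sprayed as a wettable powder or emulsifiable concentrate dilution.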

[2] = test system: crabgrass (Digitaria sanquinalis L.); test: as above
Method in brief: as §1

[3] = test system: green foxtail (Setaria viridis L.); test: as above
Method in brief: (§2)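 Plants in upland soil were sprayed on the foliage at early leaf stages (wild oat 0.4–1.2, rice 0.2–2.7, green foxtail 0.5–3.2, soybean primary leaf) with wettable powder or emulsifiable concentrate formulations. Spray volume was 1,000 L/ha water containing 0.1 vol% spreader, at prescribed active-ingredient rates. Growth inhibition (0 = untreated, 100 = complete kill) was scored visually on day 14.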

[4] = test system: wild oat (Avena fatua L.); test: as above
Method in brief: as §2

rice (Oryza sativa L.) [5] = test: as above
Method in brief: as §2

corn (Zea mays L.) [6] = test: as above
Method in brief: as §1

[7] = test system: barnyardgrass (Echinochloa crus-qalli L.); test: as above
Method in brief: as §1

[8] = test system: soybean (Glycine max Merr.); test: as above
Method in brief: as §2

[9] = test system: wheat (Triticum aestivum L.); test: as above
Method in brief: as §1

[10] = test system: italian ryegrass (Lolium multiflorum Lam.); test: as above
Method in brief: as §1

[11] = test system: redroot pigweed (Amaranthus retroflexus L.); test: Test Example 2: soil application on the day after sowing, growth inhibition rate on 14th day
Method in brief: (§3)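 Pre-emergence soil spray on upland soil the day after sowing; wettable powder or emulsifiable concentrate diluted in water at 1,000 L/ha, dosed to prescribed active-ingredient amounts. Visual growth inhibition scored 14 days after application, 0 (untreated-equivalent) to 100 (complete kill).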

[12] = test system: velvetleaf (Abutilon theophrasti MEDIC.); test: as above
Method in brief: as §3

[13] = test system: green foxtail (Setaria viridis L.); test: as above
Method in brief: as §3

rice (Oryza sativa L.) [14] = test: as above
Method in brief: as §3

corn (Zea mays L.) [15] = test: as above
Method in brief: as §3

[16] = test system: barnyardgrass (Echinochloa crus-qalli L.); test: as above
Method in brief: as §3

[17] = test system: soybean (Glycine max Merr.); test: as above
Method in brief: as §3

[18] = test system: wheat (Triticum aestivum L.); test: as above
Method in brief: as §3

[19] = test system: crabgrass (Digitaris sanquinalis L.); test: as above
Method in brief: as §3

[20] = test system: prickly sida (Sida spinosa L.); test: as above
Method in brief: as §3

SMILES: Cc1ccc(Oc2ncc(C(F)(F)F)cc2Cl)cc1-c1c(OC(=O)OC(C)(C)C)c(C)nn(C)c1=O [1-59]
- Growth inhibition rate (%) Redroot pigweed [1]: 0%
- Growth inhibition rate (%) Crabgrass [2]: 100%
- Growth inhibition rate (%) Green foxtail [3]: 100%
- Growth inhibition rate (%) Wild oat [4]: 99%
- Growth inhibition rate (%) Rice (rice (Oryza sativa L.) [5]): 40%
- Growth inhibition rate (%) Corn (corn (Zea mays L.) [6]): 98%
- Growth inhibition rate (%) Barnyardgrass [7]: 100%
- Growth inhibition rate (%) Soybean [8]: 0%
- Growth inhibition rate (%) Wheat [9]: 93%
- Growth inhibition rate (%) Italian ryegrass [10]: 98%
- Growth inhibition rate (%) Redroot pigweed [11]: 0%
- Growth inhibition rate (%) Velvetleaf [12]: 0%
- Growth inhibition rate (%) Green foxtail [13]: 99%
- Growth inhibition rate (%) Rice (rice (Oryza sativa L.) [14]): 20%
- Growth inhibition rate (%) Corn (corn (Zea mays L.) [15]): 0%
- Growth inhibition rate (%) Barnyardgrass [16]: 100%
- Growth inhibition rate (%) Soybean [17]: 0%
- Growth inhibition rate (%) Wheat [18]: 0%
- Growth inhibition rate (%) Crabgrass [19]: 100%
- Growth inhibition rate (%) Prickly sida [20]: 0%

SMILES: Cc1ccc(Oc2ncc(C(F)(F)F)cc2Cl)cc1-c1c(OS(C)(=O)=O)c(C)nn(C)c1=O [1-62]
- Growth inhibition rate (%) Redroot pigweed [1]: 0%
- Growth inhibition rate (%) Crabgrass [2]: 100%
- Growth inhibition rate (%) Green foxtail [3]: 100%
- Growth inhibition rate (%) Wild oat [4]: 99%
- Growth inhibition rate (%) Rice (rice (Oryza sativa L.) [5]): 88%
- Growth inhibition rate (%) Corn (corn (Zea mays L.) [6]): 100%
- Growth inhibition rate (%) Barnyardgrass [7]: 100%
- Growth inhibition rate (%) Soybean [8]: 0%
- Growth inhibition rate (%) Wheat [9]: 90%
- Growth inhibition rate (%) Italian ryegrass [10]: 98%
- Growth inhibition rate (%) Redroot pigweed [11]: 0%
- Growth inhibition rate (%) Velvetleaf [12]: 0%
- Growth inhibition rate (%) Green foxtail [13]: 99%
- Growth inhibition rate (%) Rice (rice (Oryza sativa L.) [14]): 20%
- Growth inhibition rate (%) Corn (corn (Zea mays L.) [15]): 0%
- Growth inhibition rate (%) Barnyardgrass [16]: 100%
- Growth inhibition rate (%) Soybean [17]: 0%
- Growth inhibition rate (%) Wheat [18]: 0%
- Growth inhibition rate (%) Crabgrass [19]: 100%
- Growth inhibition rate (%) Prickly sida [20]: 0%

SMILES: CCn1nc(C)c(O)c(-c2cc(Oc3ncc(C(F)(F)F)cc3Cl)ccc2C)c1=O [1-65]
- Growth inhibition rate (%) Redroot pigweed [1]: 0%
- Growth inhibition rate (%) Crabgrass [2]: 100%
- Growth inhibition rate (%) Green foxtail [3]: 100%
- Growth inhibition rate (%) Wild oat [4]: 98%
- Growth inhibition rate (%) Rice (rice (Oryza sativa L.) [5]): 60%
- Growth inhibition rate (%) Corn (corn (Zea mays L.) [6]): 98%
- Growth inhibition rate (%) Barnyardgrass [7]: 99%
- Growth inhibition rate (%) Soybean [8]: 0%
- Growth inhibition rate (%) Wheat [9]: 10%
- Growth inhibition rate (%) Italian ryegrass [10]: 98%
- Growth inhibition rate (%) Redroot pigweed [11]: 0%
- Growth inhibition rate (%) Velvetleaf [12]: 0%
- Growth inhibition rate (%) Green foxtail [13]: 99%
- Growth inhibition rate (%) Rice (rice (Oryza sativa L.) [14]): 20%
- Growth inhibition rate (%) Corn (corn (Zea mays L.) [15]): 0%
- Growth inhibition rate (%) Barnyardgrass [16]: 100%
- Growth inhibition rate (%) Soybean [17]: 0%
- Growth inhibition rate (%) Wheat [18]: 0%
- Growth inhibition rate (%) Crabgrass [19]: 100%
- Growth inhibition rate (%) Prickly sida [20]: 0%

SMILES: CCc1ccc(Oc2ncc(C(F)(F)F)cc2Cl)cc1-c1c(O)cnn(C)c1=O [1-95]
- Growth inhibition rate (%) Redroot pigweed [1]: 0%
- Growth inhibition rate (%) Crabgrass [2]: 100%
- Growth inhibition rate (%) Green foxtail [3]: 100%
- Growth inhibition rate (%) Wild oat [4]: 99%
- Growth inhibition rate (%) Rice (rice (Oryza sativa L.) [5]): 80%
- Growth inhibition rate (%) Corn (corn (Zea mays L.) [6]): 100%
- Growth inhibition rate (%) Barnyardgrass [7]: 100%
- Growth inhibition rate (%) Soybean [8]: 0%
- Growth inhibition rate (%) Wheat [9]: 45%
- Growth inhibition rate (%) Italian ryegrass [10]: 95%
- Growth inhibition rate (%) Redroot pigweed [11]: 0%
- Growth inhibition rate (%) Velvetleaf [12]: 0%
- Growth inhibition rate (%) Green foxtail [13]: 100%
- Growth inhibition rate (%) Rice (rice (Oryza sativa L.) [14]): 50%
- Growth inhibition rate (%) Corn (corn (Zea mays L.) [15]): 80%
- Growth inhibition rate (%) Barnyardgrass [16]: 100%
- Growth inhibition rate (%) Soybean [17]: 0%
- Growth inhibition rate (%) Wheat [18]: 0%
- Growth inhibition rate (%) Crabgrass [19]: 100%
- Growth inhibition rate (%) Prickly sida [20]: 0%

SMILES: CCc1nn(C)c(=O)c(-c2cc(Oc3ncc(C(F)(F)F)cc3Cl)ccc2C)c1O [1-98]
- Growth inhibition rate (%) Redroot pigweed [1]: 0%
- Growth inhibition rate (%) Crabgrass [2]: 30%
- Growth inhibition rate (%) Green foxtail [3]: 60%
- Growth inhibition rate (%) Wild oat [4]: 65%
- Growth inhibition rate (%) Rice (rice (Oryza sativa L.) [5]): 0%
- Growth inhibition rate (%) Corn (corn (Zea mays L.) [6]): 80%
- Growth inhibition rate (%) Barnyardgrass [7]: 88%
- Growth inhibition rate (%) Soybean [8]: 10%
- Growth inhibition rate (%) Wheat [9]: 20%
- Growth inhibition rate (%) Italian ryegrass [10]: 78%
- Growth inhibition rate (%) Redroot pigweed [11]: 0%
- Growth inhibition rate (%) Velvetleaf [12]: 0%
- Growth inhibition rate (%) Green foxtail [13]: 30%
- Growth inhibition rate (%) Rice (rice (Oryza sativa L.) [14]): 35%
- Growth inhibition rate (%) Corn (corn (Zea mays L.) [15]): 0%
- Growth inhibition rate (%) Barnyardgrass [16]: 95%
- Growth inhibition rate (%) Soybean [17]: 0%
- Growth inhibition rate (%) Wheat [18]: 0%
- Growth inhibition rate (%) Crabgrass [19]: 20%
- Growth inhibition rate (%) Prickly sida [20]: 0%

SMILES: COCOc1c(C)nn(C)c(=O)c1-c1cc(Oc2ncc(C(F)(F)F)cc2Cl)ccc1C [1-132]
- Growth inhibition rate (%) Redroot pigweed [1]: 0%
- Growth inhibition rate (%) Crabgrass [2]: 100%
- Growth inhibition rate (%) Green foxtail [3]: 100%
- Growth inhibition rate (%) Wild oat [4]: 98%
- Growth inhibition rate (%) Rice (rice (Oryza sativa L.) [5]): 88%
- Growth inhibition rate (%) Corn (corn (Zea mays L.) [6]): 99%
- Growth inhibition rate (%) Barnyardgrass [7]: 100%
- Growth inhibition rate (%) Soybean [8]: 20%
- Growth inhibition rate (%) Wheat [9]: 98%
- Growth inhibition rate (%) Italian ryegrass [10]: 98%
- Growth inhibition rate (%) Redroot pigweed [11]: 0%
- Growth inhibition rate (%) Velvetleaf [12]: 0%
- Growth inhibition rate (%) Green foxtail [13]: 98%
- Growth inhibition rate (%) Rice (rice (Oryza sativa L.) [14]): 0%
- Growth inhibition rate (%) Corn (corn (Zea mays L.) [15]): 10%
- Growth inhibition rate (%) Barnyardgrass [16]: 99%
- Growth inhibition rate (%) Soybean [17]: 0%
- Growth inhibition rate (%) Wheat [18]: 0%
- Growth inhibition rate (%) Crabgrass [19]: 93%
- Growth inhibition rate (%) Prickly sida [20]: 0%

SMILES: Cc1nn(C)c(=O)c(-c2cc(Oc3ncc(C(F)(F)F)cc3Cl)ccc2C2CC2)c1O [1-149]
- Growth inhibition rate (%) Redroot pigweed [1]: 10%
- Growth inhibition rate (%) Crabgrass [2]: 98%
- Growth inhibition rate (%) Green foxtail [3]: 100%
- Growth inhibition rate (%) Wild oat [4]: 85%
- Growth inhibition rate (%) Rice (rice (Oryza sativa L.) [5]): 70%
- Growth inhibition rate (%) Corn (corn (Zea mays L.) [6]): 50%
- Growth inhibition rate (%) Barnyardgrass [7]: 100%
- Growth inhibition rate (%) Soybean [8]: 0%
- Growth inhibition rate (%) Wheat [9]: 20%
- Growth inhibition rate (%) Italian ryegrass [10]: 83%
- Growth inhibition rate (%) Redroot pigweed [11]: 0%
- Growth inhibition rate (%) Velvetleaf [12]: 0%
- Growth inhibition rate (%) Green foxtail [13]: 100%
- Growth inhibition rate (%) Rice (rice (Oryza sativa L.) [14]): 0%
- Growth inhibition rate (%) Corn (corn (Zea mays L.) [15]): 0%
- Growth inhibition rate (%) Barnyardgrass [16]: 98%
- Growth inhibition rate (%) Soybean [17]: 0%
- Growth inhibition rate (%) Wheat [18]: 0%
- Growth inhibition rate (%) Crabgrass [19]: 99%
- Growth inhibition rate (%) Prickly sida [20]: 0%

Source: US10870638B2, “Pyridazinone compound or its salt, and herbicide containing it” (ISHIHARA SANGYO KAISHA, LTD., priority 2016, dated 2020)
